Holding throughout (assay type): cell-based
In one test the target is T1, M1 muscarinic receptor (Homo sapiens, UniProt P11229).
T1 construct: expressed in transfected cells; host or cells: CHO (M1-CHO)
T1 sequence (P11229 1-460): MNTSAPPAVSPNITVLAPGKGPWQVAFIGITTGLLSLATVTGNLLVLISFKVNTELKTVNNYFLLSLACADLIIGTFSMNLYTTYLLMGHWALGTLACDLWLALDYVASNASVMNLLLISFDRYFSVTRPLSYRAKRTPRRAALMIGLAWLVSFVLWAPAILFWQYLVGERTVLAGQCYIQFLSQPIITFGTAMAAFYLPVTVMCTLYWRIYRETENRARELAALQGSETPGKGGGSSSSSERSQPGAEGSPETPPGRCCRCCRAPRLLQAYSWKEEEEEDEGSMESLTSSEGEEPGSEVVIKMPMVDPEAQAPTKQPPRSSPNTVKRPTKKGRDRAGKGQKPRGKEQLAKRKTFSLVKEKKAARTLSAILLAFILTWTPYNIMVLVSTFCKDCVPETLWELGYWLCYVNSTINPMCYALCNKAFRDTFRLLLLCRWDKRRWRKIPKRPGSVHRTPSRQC
Nature of the test: Functional mobilization of intracellular calcium (FLIPR), M1-CHO cells. As to conditions: for Emax: 100% efficacy = maximum response obtained with the Carbachol control; for M1 Activity: M1-CHO cells, calcium mobilization (FLIPR). Summed up:
(§1)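 CHO cells expressing human M1–M4 receptors loaded with Fluo-3 AM or Calcium 3 dye (1 mM probenecid, pH 7.4); 0.5% DMSO final. Agonist mode: compound added directly; antagonist mode: 15 min pre-incubation or co-application, then carbachol at EC80. Fluorescence read 60 s on FLIPR; efficacy relative to carbachol maximum.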

The target of a further test is T2, M2 muscarinic receptor (Homo sapiens, UniProt P08172).
T2 construct: expressed in transfected cells; host or cells: CHO (M2-CHO)
T2 sequence (P08172 1-466): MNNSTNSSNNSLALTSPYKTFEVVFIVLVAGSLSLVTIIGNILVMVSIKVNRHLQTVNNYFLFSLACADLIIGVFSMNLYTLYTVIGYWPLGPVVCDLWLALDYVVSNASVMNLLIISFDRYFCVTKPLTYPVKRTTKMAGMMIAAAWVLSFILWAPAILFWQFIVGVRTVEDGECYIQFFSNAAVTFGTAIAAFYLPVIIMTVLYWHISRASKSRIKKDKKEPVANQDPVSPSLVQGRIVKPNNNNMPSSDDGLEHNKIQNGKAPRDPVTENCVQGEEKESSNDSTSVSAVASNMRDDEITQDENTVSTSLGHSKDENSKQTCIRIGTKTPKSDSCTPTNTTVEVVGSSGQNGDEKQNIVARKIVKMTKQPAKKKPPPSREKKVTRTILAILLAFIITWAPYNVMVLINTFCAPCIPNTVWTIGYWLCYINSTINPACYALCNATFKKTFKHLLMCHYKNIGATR
Nature of the test: Functional mobilization of intracellular calcium (FLIPR), M2-CHO cells. Conditions: for Emax: 100% efficacy = maximum response obtained with the Carbachol control; for M2 Activity: M2-CHO cells, calcium mobilization (FLIPR). Summed up: as §1
(A change in cytosolic calcium serves as a functional read-out for many receptors and channels.)

The next test concerns the target T3, M3 muscarinic receptor (Homo sapiens, UniProt P20309).
T3 construct: expressed in transfected cells; host or cells: CHO (M3-CHO)
Nature of the test: Functional mobilization of intracellular calcium (FLIPR), M3-CHO cells. As to conditions: for Emax: 100% efficacy = maximum response obtained with the Carbachol control; for M3 Activity: M3-CHO cells, calcium mobilization (FLIPR). The gist of the method: as §1

The next test has as its target T4, M4 muscarinic receptor (Homo sapiens, UniProt P08173).
T4 construct: expressed in transfected cells; host or cells: CHO (M4-CHO)
T4 sequence (P08173 1-479): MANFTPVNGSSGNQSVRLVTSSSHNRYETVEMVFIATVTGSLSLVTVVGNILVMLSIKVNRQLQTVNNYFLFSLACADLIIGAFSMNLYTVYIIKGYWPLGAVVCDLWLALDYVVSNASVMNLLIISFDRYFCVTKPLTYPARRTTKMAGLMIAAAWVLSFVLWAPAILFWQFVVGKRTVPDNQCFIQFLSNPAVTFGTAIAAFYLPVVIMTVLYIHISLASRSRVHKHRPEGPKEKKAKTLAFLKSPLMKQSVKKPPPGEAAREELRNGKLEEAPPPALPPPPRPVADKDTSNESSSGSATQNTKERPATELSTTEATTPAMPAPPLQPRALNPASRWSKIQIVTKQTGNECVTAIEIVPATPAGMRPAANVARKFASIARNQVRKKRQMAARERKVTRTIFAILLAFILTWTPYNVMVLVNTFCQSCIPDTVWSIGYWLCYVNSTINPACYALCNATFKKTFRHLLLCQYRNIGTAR
Description: Functional mobilization of intracellular calcium (FLIPR), M4-CHO cells. As to conditions: for Emax: 100% efficacy = maximum response obtained with the Carbachol control; for M4 Activity: M4-CHO cells, calcium mobilization (FLIPR). Summed up:
as §1

T3 sequence (P20309 whole entry): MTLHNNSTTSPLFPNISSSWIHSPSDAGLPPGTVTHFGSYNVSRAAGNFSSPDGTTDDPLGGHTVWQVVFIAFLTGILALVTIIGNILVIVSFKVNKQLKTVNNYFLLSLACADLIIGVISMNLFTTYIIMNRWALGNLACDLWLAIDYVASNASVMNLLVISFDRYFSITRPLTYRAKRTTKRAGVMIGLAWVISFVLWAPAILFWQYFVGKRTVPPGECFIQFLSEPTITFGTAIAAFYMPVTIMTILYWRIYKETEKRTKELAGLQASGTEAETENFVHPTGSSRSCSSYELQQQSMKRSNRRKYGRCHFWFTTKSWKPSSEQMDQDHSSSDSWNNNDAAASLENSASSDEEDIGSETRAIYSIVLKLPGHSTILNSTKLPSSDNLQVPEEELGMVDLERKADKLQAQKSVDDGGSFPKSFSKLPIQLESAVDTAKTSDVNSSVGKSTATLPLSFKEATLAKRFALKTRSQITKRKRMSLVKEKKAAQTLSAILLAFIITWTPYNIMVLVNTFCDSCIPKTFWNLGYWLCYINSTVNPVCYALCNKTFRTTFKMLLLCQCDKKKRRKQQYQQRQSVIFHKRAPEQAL

`CCOC(=O)N1C2CCC1CC(N1CCC(c3cc(F)cc(F)c3OC)CC1)C2` (centres unmarked) [Compound 198]: at M1 muscarinic receptor, the maximal response (Emax) (as a rule, the greatest response seen or fitted, relative to the assay's reference) lay in the range of 25 to 100% and the “M1 Activity” value was “++ (activity was measured to be from 1.0 μM to 5.0 μM)”. Moreover, at M2 muscarinic receptor, the maximum response (Emax) is less than 25% and the “M2 Activity” value is “+ (activity was measured to be greater than 5.0 μM)”. Besides, at M3 muscarinic receptor, the maximum response (Emax) is less than 25% and the “M3 Activity” value was “+ (activity was measured to be greater than 5.0 μM)”. Moreover, at M4 muscarinic receptor, the Emax lay in the range of 25 to 100% and the “M4 Activity” value was “+++ (activity was measured to be less than 1.0 μM)”.
For the molecule `COc1ccccc1C1CCN(C2CCCC3(CCCCC3)C2)CC1` (centres unmarked) [Compound 199], on M1 muscarinic receptor, the maximal response (Emax) was less than 25% and the “M1 Activity” value is reported as “+ (activity was measured to be greater than 5.0 μM)”. In addition, on M2 muscarinic receptor, the Emax was less than 25% and the “M2 Activity” value was “+ (activity was measured to be greater than 5.0 μM)”. Moreover, on M3 muscarinic receptor, the Emax is less than 25% and the “M3 Activity” value is reported as “+ (activity was measured to be greater than 5.0 μM)”. Also, at M4 muscarinic receptor, the Emax was less than 25% and the “M4 Activity” value was “+ (activity was measured to be greater than 5.0 μM)”.
Consider `COc1ccc(F)cc1C1CCN(C2CCCCC2)CC1` [Compound 200], for which, on M1 muscarinic receptor, the Emax was in the range of 25 to 100% and the “M1 Activity” value was “+++ (activity was measured to be less than 1.0 μM)”. In addition, on M2 muscarinic receptor, the Emax fell in the range of 25 to 100% and the “M2 Activity” value is reported as “++ (activity was measured to be from 1.0 μM to 5.0 μM)”. In addition, on M3 muscarinic receptor, the Emax is less than 25% and the “M3 Activity” value is on record as “+ (activity was measured to be greater than 5.0 μM)”. Further, at M4 muscarinic receptor, the Emax lay in the range of 25 to 100% and the “M4 Activity” value is “+++ (activity was measured to be less than 1.0 μM)”.
On to `CCOC(=O)N1C2CCC1CC(N1CCC(c3ccccc3OC)CC1)C2` (centres unmarked) [Compound 202], for which, at M1 muscarinic receptor, the Emax is 25 to 100% and the “M1 Activity” value is reported as “+++ (activity was measured to be less than 1.0 μM)”. For the same molecule, on M2 muscarinic receptor, the maximum response (Emax) was in the range of 25 to 100% and the “M2 Activity” value is reported as “++ (activity was measured to be from 1.0 μM to 5.0 μM)”. Moreover, at M3 muscarinic receptor, the maximal effect (Emax) is less than 25% and the “M3 Activity” value was “+ (activity was measured to be greater than 5.0 μM)”. Moreover, on M4 muscarinic receptor, the Emax is 25 to 100% and the “M4 Activity” value was “+++ (activity was measured to be less than 1.0 μM)”.
For `Fc1ccc(F)c(C2CCN(C3C[C@H]4CC[C@H]3C4)CC2)c1` (some centres unmarked) [Compound 205], on M1 muscarinic receptor, the Emax was 25 to 100% and the “M1 Activity” value is reported as “++ (activity was measured to be from 1.0 μM to 5.0 μM)”. For the same molecule, at M2 muscarinic receptor, the maximal effect (Emax) was in the range of 25 to 100% and the “M2 Activity” value is given as “++ (activity was measured to be from 1.0 μM to 5.0 μM)”. Also, on M3 muscarinic receptor, the Emax was less than 25% and the “M3 Activity” value was “+ (activity was measured to be greater than 5.0 μM)”. On M4 muscarinic receptor, the maximal response (Emax) lay in the range of 25 to 100% and the “M4 Activity” value is given as “+++ (activity was measured to be less than 1.0 μM)”.
`COc1ccc(-c2cc(F)ccc2F)cc1C1CCN([C@H]2C[C@H]3CC[C@H]2C3)CC1` [Compound 206]: at M1 muscarinic receptor, the maximal effect (Emax) is less than 25% and the “M1 Activity” value is on record as “+ (activity was measured to be greater than 5.0 μM)”. Also, at M2 muscarinic receptor, the maximum response (Emax) is less than 25% and the “M2 Activity” value is on record as “+ (activity was measured to be greater than 5.0 μM)”. At M3 muscarinic receptor, the Emax is less than 25% and the “M3 Activity” value is “+ (activity was measured to be greater than 5.0 μM)”. Further, at M4 muscarinic receptor, the Emax was 25 to 100% and the “M4 Activity” value is given as “+ (activity was measured to be greater than 5.0 μM)”.
For `COc1ccc(F)cc1C1CCN(C2CC3CCC(C3)C2)CC1` (centres unmarked) [Compound 207], at M1 muscarinic receptor, the maximal effect (Emax) lay in the range of 25 to 100% and the “M1 Activity” value is recorded as “+++ (activity was measured to be less than 1.0 μM)”. On M2 muscarinic receptor, the Emax is less than 25% and the “M2 Activity” value is listed as “+ (activity was measured to be greater than 5.0 μM)”. Moreover, at M3 muscarinic receptor, the maximal effect (Emax) was less than 25% and the “M3 Activity” value is reported as “+ (activity was measured to be greater than 5.0 μM)”. Besides, at M4 muscarinic receptor, the Emax lay in the range of 25 to 100% and the “M4 Activity” value is recorded as “+++ (activity was measured to be less than 1.0 μM)”.

(Values after US7880007B2, “Bicyclic substituted phenyl piperidine modulators of muscarinic receptors” (Vertex Pharmaceuticals Incorporated, priority 2004, dated 2011).)
